Test results reported in patent US6387913B1, “Method of treating airway diseases with combined administration of A2B and A3 adenosine receptor antagonists” (priority 2000, dated 2002).

Key:
Assay type in all cases: in vivo
[1] = molecular target: T1, A3 adenosine receptor (Mus musculus, UniProt Q61618); test: Effect of MRS1220 on dose-responsiveness to IB-CL-MECA (bronchospasm) in a mouse model of asthma; details: MRS1220 10^-6 M; control and sensitized mice
T1 construct: from tissue; host or cells: live mouse (airways/lung), control and sensitized animals
T1 sequence (Q61618 1-319): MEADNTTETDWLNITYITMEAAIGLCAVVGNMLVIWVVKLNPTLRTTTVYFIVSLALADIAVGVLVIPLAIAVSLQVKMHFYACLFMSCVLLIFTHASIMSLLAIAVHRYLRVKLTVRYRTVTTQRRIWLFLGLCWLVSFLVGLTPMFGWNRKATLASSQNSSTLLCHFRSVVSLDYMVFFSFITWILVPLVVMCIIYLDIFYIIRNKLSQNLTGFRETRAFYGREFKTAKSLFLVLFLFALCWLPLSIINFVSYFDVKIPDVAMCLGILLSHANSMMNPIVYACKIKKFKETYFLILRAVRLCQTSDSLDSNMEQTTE
Excerpt: Con=solid line, Sen=dotted line, Con+MRS=broken line, and Sen+MRS=dashed line.
Therefore, the combination of A3 and A2B antagonists appear better at blocking the adenosine-induced bronchospasm in a mouse model of asthma.

[2] = molecular target: T2, A2A adenosine receptor (Mus musculus, UniProt Q60613); test: Effect of A2A antagonist on dose-responsiveness to CGS-21680 (Penh) in a mouse model of asthma; details: DMPX 10^-4 M nebulized 3 minutes, agonist dose response 15 minutes later; control and sensitized mice
T2 construct: from tissue; host or cells: live mouse (airways/lung), control and sensitized animals
Protocol: FIG. 2 illustrates the effect of DMPX (10^−4 M) on dose-responsiveness to […] (ug/ml). Con=solid line, Sen=dashed line, Con+DMPX=broken line, and Sen+DMPX=dotted line.
FIG. 2 illustrates the effect of DMPX (10^−4 M) on dose-responsiveness to […]. The animals were nebulized with DMPX (10^−4 M) for 3 minutes and 15 minutes later the dose response to CGS-21680 was performed. n=8 for each group. CGS-21680 is an A2A adenosine receptor agonist; DMPX is an A2A adenosine receptor antagonist.

[3] = molecular target: T3, A2B adenosine receptor (Mus musculus, UniProt Q60614); test: Effect of enprofylline on dose-responsiveness to NECA (Penh) in a mouse model of asthma; details: enprofylline 12 mg/ml nebulized, NECA dose-response 15 minutes later; control and sensitized mice
T3 construct: from tissue; host or cells: live mouse (airways/lung), control and sensitized animals
T3 sequence (Q60614 1-332): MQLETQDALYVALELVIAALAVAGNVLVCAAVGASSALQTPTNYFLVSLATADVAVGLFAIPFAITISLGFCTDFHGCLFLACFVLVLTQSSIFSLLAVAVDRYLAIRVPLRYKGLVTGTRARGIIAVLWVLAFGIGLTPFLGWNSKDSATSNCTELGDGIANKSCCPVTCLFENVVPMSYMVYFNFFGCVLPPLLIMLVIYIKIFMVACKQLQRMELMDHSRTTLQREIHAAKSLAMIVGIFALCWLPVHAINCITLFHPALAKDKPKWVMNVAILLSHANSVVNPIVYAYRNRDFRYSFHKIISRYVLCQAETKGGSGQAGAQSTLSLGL
Protocol: FIG. 3 illustrates the effect of enprofylline (enp; 12 mg/ml) on dose-responsiveness to 5′-(N-ethyl)carboxamidoadenosine (NECA, in ug/ml). Con=dotted line, Sen=dashed line, Con+enp=solid line, and Sen+enp=broken line.
FIG. 3 illustrates the effect of enprofylline (12 mg/ml) on dose-responsiveness to NECA. The animals were nebulized with enprofylline (12 mg/ml) for 1 minutes and 15 minutes later the dose-response to […] was performed. * p<0.05 compared to Sen+Enp group. # p<0.05 compared to control group. n=10 for each group. NECA is a non-selective adenosine receptor agonist; enprofylline is an A2B adenosine receptor antagonist.

[4] = molecular target: T4, A1 adenosine receptor (Mus musculus, UniProt Q60612); test: Effect of A1 antagonist on dose-responsiveness to CPA (Penh) in a mouse model of asthma; details: DPCPX 10^-4 M nebulized 3 minutes, CPA dose response 15 minutes later; control and sensitized mice
T4 construct: from tissue; host or cells: live mouse (airways/lung), control and sensitized animals
T4 sequence (Q60612 1-326): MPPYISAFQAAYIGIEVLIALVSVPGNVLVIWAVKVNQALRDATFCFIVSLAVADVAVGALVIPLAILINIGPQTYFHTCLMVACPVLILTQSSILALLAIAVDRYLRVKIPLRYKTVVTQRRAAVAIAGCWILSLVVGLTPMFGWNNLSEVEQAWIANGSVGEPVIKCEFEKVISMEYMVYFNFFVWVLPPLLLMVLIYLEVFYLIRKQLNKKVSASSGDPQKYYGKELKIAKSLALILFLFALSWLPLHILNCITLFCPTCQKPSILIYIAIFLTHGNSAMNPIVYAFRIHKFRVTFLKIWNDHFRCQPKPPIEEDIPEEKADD
Protocol: FIG. 1 illustrates the effect of DPCPX (10^−4 M) on dose-responsiveness to CPA (micrograms per milliliter—ug/ml) in a mouse model of asthma. Control (Con)=dotted line, sensitized (Sen)=broken line, Con+DPCPX=solid line, and Sen+DPCPX=dashed line. Penh=percentage of saline in all Figures.
FIG. 1 illustrates the effect of DPCPX (10^−4 M) on dose-responsiveness to CPA in a mouse model of asthma. The animals were nebulized with DPCPX […] for 3 minutes and 15 minutes later the dose response to CPA was performed. n=8 for each group. CPA is an A1 adenosine receptor agonist; DPCPX is an A1 adenosine receptor antagonist.

T2 sequence (Q60613 whole entry): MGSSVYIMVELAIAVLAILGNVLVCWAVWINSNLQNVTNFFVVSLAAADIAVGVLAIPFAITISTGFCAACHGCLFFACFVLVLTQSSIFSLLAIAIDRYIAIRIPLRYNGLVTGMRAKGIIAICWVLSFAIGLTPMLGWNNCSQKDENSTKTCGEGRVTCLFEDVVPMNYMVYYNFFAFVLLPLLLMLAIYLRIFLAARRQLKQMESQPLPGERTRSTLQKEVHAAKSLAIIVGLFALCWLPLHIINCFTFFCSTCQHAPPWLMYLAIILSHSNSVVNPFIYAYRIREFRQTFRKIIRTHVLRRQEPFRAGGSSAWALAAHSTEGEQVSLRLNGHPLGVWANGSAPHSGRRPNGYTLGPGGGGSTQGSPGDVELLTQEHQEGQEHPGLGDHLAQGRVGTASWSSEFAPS

Question: For `O=C(Cc1ccccc1)Nc1nc2ccc(Cl)cc2c2nc(-c3ccco3)nn12` [MRS1220], which “block of the bronchospasm produced by IB-CL-MECA” value [1] is on record?
Answer: did not completely block the bronchospasm

Question: How did the “effect on dose-responsiveness to CGS-21680 (Penh)” value [2] turn out when `C#CCn1c(=O)c2c(ncn2C)n(C)c1=O` [DMPX] was run?
Answer: no A2A adenosine receptor involvement

Question: With `CCCn1c(=O)[nH]c(=O)c2[nH]cnc21` [enprofylline] as the molecule, how does the “block of the response to NECA (Penh)” value [3] read?
Answer: did not totally block the response

Question: `CCCn1c(=O)c2[nH]c(C3CCCC3)nc2n(CCC)c1=O` [DPCPX] was tested. Which “effect on dose-responsiveness to CPA (Penh)” value [4] did it give?
Answer: no A1 adenosine receptor involvement
